The target in the experiment is T1, P2X7 receptor (Homo sapiens, UniProt Q99572).
T1 construct: host or cells: THP-1 cells differentiated with LPS and IFN-γ
T1 sequence (Q99572 1-595): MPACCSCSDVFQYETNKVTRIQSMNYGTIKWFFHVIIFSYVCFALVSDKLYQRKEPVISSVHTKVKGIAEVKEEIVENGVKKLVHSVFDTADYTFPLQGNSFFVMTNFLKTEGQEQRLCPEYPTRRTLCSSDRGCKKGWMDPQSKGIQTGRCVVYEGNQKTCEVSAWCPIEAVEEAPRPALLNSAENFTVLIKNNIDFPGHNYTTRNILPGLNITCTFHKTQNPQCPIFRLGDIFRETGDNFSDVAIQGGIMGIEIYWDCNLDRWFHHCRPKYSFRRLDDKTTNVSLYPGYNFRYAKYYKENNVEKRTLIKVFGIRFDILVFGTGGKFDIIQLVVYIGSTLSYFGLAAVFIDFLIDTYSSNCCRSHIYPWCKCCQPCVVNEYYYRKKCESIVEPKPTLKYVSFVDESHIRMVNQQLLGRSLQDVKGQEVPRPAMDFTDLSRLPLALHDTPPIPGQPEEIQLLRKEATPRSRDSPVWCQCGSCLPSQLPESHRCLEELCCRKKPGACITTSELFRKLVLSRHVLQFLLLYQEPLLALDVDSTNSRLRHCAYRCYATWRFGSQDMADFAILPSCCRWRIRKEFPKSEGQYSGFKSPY
The experiment in a line: IL-1β release assay in differentiated THP-1 cells stimulated with BzATP (Example 9). Format: cell-based. More on the design: inhibition: dose or concentration left out as unconfirmed. To be noted: for inhibition at 0.3 µM: 0.3 μM compound, read-out: IL-1β % Inhib. @ 0.3 μM; for inhibition at 0.3 µM / inhibition at 0.1 µM: differentiated THP-1 cells, BzATP 250 uM; for pIC50: THP-1 cells, BzATP-stimulated IL-1β release, four parameter logistic fit; for inhibition at 0.1 µM: 0.1 μM compound; for inhibition: THP-1, read-out: IL-1β % Inhib. In short, it runs like this:
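THP-1 cells differentiated 16 h with LPS and IFN-γ (100 ng/mL each), re-primed 2 h with LPS, then compound-pretreated 30 min before 250 uM BzATP for 45 min. Supernatant IL-1β quantified by ELISA; background-adjusted percent inhibition fitted to four-parameter logistic for IC50.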

Setting [1] is: symbols * to ****, read-out: IL-1β % Inhib. (asterisk symbols: at 0.1 μM).
Where [2] appears, read: "*" class symbols, read-out: IL-1β % Inhib. ("*" symbols: at 0.1 μM).

The structures appear in SMILES notation. pIC50: −log10 of the molar value. Read-outs that look alike come from different tables or passages of the source.

The pIC50 is the negative decadic logarithm of the IC50, by convention in mol/L.

Consider `CC(=O)OCCn1ccc2c(NC(=O)Cc3ccc4c(c3)OCCO4)cccc2c1=O` [Compound 1377], for which the pIC50 is less than 6.00. Also, for the setting “symbols + to ++++”, the inhibition at 0.3 µM lay within 0 to 25%. For `CN(C)CCn1ccc2c(NC(=O)Cc3ccc(Cl)cc3C(F)(F)F)cccc2c1=O` [Compound 1611], the pIC50 was 6.03. Moreover, the inhibition at 0.3 µM ("+" class symbols) was in the range of 0 to 25%.

For the compound `COc1ccc(C(=O)Nc2cccc3c(=O)n(CC4CCOCC4)ccc23)c(C)c1` [Compound 1394], under setting [1], the inhibition at 0.1 µM lay within 0 to 25%.

`Cc1cc(C(=O)Nc2cccc3c(=O)n(CC(C)(C)C)ccc23)ccc1Cl` [Compound 1056]: the inhibition at 0.3 µM ('+' class symbols) lay within 0 to 25%. On the same count and under the same terms, as for `Cc1cc(C(=O)Nc2cccc3c(=O)n(Cc4cccnc4)ccc23)ccc1Cl` [Compound 1081], the figure is 0 to 25%. On to `Cc1c(Cl)cccc1C(=O)Nc1cccc2c(=O)n(CC(C)(C)C)ccc12` [Compound 1275], for which, for the setting “symbols + to ++++”, the inhibition at 0.3 µM fell in the range of 0 to 25%.

`O=C(CCc1ccc2c(c1)OCO2)Nc1cccc2c(=O)n(CCN3CCOCC3)ccc12` [Compound 1046]: the inhibition at 0.3 µM ('+' class symbols) fell in the range of 0 to 25%. On the same count and under the same terms, as for `CCOc1ccc(CC(=O)Nc2cccc3c(=O)n(CCN(C)C)ccc23)cc1` [Compound 1160], the figure is 0 to 25%.

In the case of `CC(C(=O)Nc1cccc2c(=O)n(CC3CCN(C)CC3)ccc12)c1ccccc1` (stereo not shown) [Compound 1466], the inhibition lay within 0 to 25%.

On to `CN(C)CCn1ccc2c(NC(=O)c3cccc4ccccc34)cccc2c1=O` [Compound 1151], for which the inhibition at 0.3 µM ('+' class symbols) was in the range of 0 to 25%. With `CCOc1ccc(CC(=O)Nc2cccc3c(=O)n(Cc4cccnc4)ccc23)cc1` [Compound 1450], the inhibition fell in the range of 0 to 25%. The same measure, in the same setting: as for `CCOc1ccc(C(=O)Nc2cccc3c(=O)n(CC(C)(C)C)ccc23)cc1` [Compound 1415], the figure is 0 to 25%. With `COc1ccc(C(=O)Nc2cccc3c(=O)n(Cc4cccnc4)ccc23)cc1C` [Compound 1371], the inhibition at 0.3 µM (symbols + to ++++) was in the range of 0 to 25%. Same read-out and setting: with `COc1ccc(OC)c(CC(=O)Nc2cccc3c(=O)n(CCN4CCOCC4)ccc23)c1` [Compound 1207] the figure was 0 to 25%. As to `CN(C)CCn1ccc2c(NC(=O)Cc3ccccc3F)cccc2c1=O` [Compound 1154], the inhibition at 0.3 µM ('+' class symbols) lay within 0 to 25%. Consider `CC(c1ccccn1)n1ccc2c(NC(=O)[C@H](C)c3ccc(Cl)c(Cl)c3)cccc2c1=O` (stereo partly shown) [Compound 1636], for which the inhibition at 0.1 µM under setting [2] fell in the range of 26 to 50%.

Turning to `CC(C(=O)Nc1cccc2c(=O)n(Cc3ccc(OC(F)(F)F)cc3)ccc12)c1ccccc1` (stereo not shown) [Compound 1570], the inhibition was 0 to 25%. `CC(=O)OCCn1ccc2c(NC(=O)Cc3ccc(Cl)cc3Cl)cccc2c1=O` [Compound 1381] gave a pIC50 of 7.47. Further, where the note is “symbols + to ++++”, the inhibition at 0.3 µM was no less than 76%. As for `Cc1ccccc1C(=O)Nc1cccc2c(=O)n(CCCN3CCCC3=O)ccc12` [Compound 1507], the inhibition was in the range of 0 to 25%. As for `COc1ccccc1CCC(=O)Nc1cccc2c(=O)n(CC(C)(C)C)ccc12` [Compound 1248], the inhibition at 0.3 µM (symbols + to ++++) fell in the range of 0 to 25%. Consider `Cc1cc(C)c(CC(=O)Nc2cccc3c(=O)n(Cc4ccc(OC(F)(F)F)cc4)ccc23)c(C)c1` [Compound 1553], for which the inhibition was in the range of 0 to 25%. Consider `Cc1cc(C(=O)Nc2cccc3c(=O)n(CC4CCOCC4)ccc23)ccc1F` [Compound 1124], for which the inhibition at 0.3 µM ('+' class symbols) lay in the range of 0 to 25%. In the case of `CN(C)CCn1ccc2c(NC(=O)CC3(O)CC(C)(C)CC(C)(C)C3)cccc2c1=O` [Compound 1390], the pIC50 was 7.10. Besides, the inhibition at 0.3 µM (symbols + to ++++) is no less than 76%. Turning to `O=C(Nc1cccc2c(=O)n(Cc3cccnc3)ccc12)c1cc(Cl)cc(Cl)c1` [Compound 1443], the inhibition is 0 to 25%.

For the compound `Cc1cc(C(=O)Nc2cccc3c(=O)n(CCCN4CCCC4=O)ccc23)ccc1Cl` [Compound 1503], the inhibition was in the range of 0 to 25%. Turning to `COc1ccccc1CC(=O)Nc1cccc2c(=O)n(CCN3CCOCC3)ccc12` [Compound 1206], under “symbols + to ++++”, the inhibition at 0.3 µM lay within 0 to 25%. As to `CC(C)(C)Cn1ccc2c(NC(=O)c3cc(Cl)ccc3Cl)cccc2c1=O` [Compound 1412], the inhibition lay within 0 to 25%.

As for `COCCn1ccc2c(NC(=O)c3ccc(F)c(C)c3)cccc2c1=O` [Compound 1334], the inhibition at 0.3 µM (symbols + to ++++) lay within 0 to 25%. On to `O=C(CCCc1ccccc1)Nc1cccc2c(=O)n(CC3CCOCC3)ccc12` [Compound 1108], for which, for the setting “'+' class symbols”, the inhibition at 0.3 µM was 0 to 25%.

As for `CC(C(=O)Nc1cccc2c(=O)n(C)ccc12)c1ccccc1` (stereo not shown) [Compound 1292], the inhibition at 0.3 µM (symbols + to ++++) lay in the range of 0 to 25%.

In the case of `COCCn1ccc2c(NC(=O)c3cc(C)ccc3Cl)cccc2c1=O` [Compound 1440], the inhibition was in the range of 0 to 25%. The same measure, in the same setting: with `O=C(Nc1cccc2c(=O)n(CCCN3CCCC3=O)ccc12)c1cccc2c1OCCO2` [Compound 1533] the figure was 26 to 50%. On the same count and under the same terms, as for `COc1ccccc1CCC(=O)Nc1cccc2c(=O)n(CCCN3CCCC3=O)ccc12` [Compound 1518], the figure is 0 to 25%.

With `CC(C)(C)Cn1ccc2c(NC(=O)c3cc4ccccc4o3)cccc2c1=O` [Compound 1264], where the note is “symbols + to ++++”, the inhibition at 0.3 µM fell in the range of 0 to 25%. With `CC(C)(C)c1ccc(C(=O)Nc2cccc3c(=O)n(CCN4CCOCC4)ccc23)cc1` [Compound 1199], the inhibition at 0.1 µM under setting [1] lay within 0 to 25%. Take `COc1ccc(CC(=O)Nc2cccc3c(=O)n(CC4CCOCC4)ccc23)cc1C` [Compound 1127]: the inhibition at 0.3 µM ('+' class symbols) lay in the range of 0 to 25%. On to `Cc1c(Cl)cccc1C(=O)Nc1cccc2c(=O)n(CCCN3CCCC3=O)ccc12` [Compound 1534], for which the inhibition was in the range of 51 to 75%. For the compound `O=C(CCCc1ccccc1)Nc1cccc2c(=O)n(CCN3CCOCC3)ccc12` [Compound 1215], the inhibition at 0.3 µM (symbols + to ++++) was in the range of 0 to 25%. `COCCn1ccc2c(NC(=O)CCc3ccc4c(c3)OCO4)cccc2c1=O` [Compound 1070]: the inhibition at 0.3 µM ('+' class symbols) lay in the range of 0 to 25%. As to `CN(C)CCn1ccc2c(NC(=O)c3ccc(S(C)(=O)=O)cc3)cccc2c1=O` [Compound 1008], the pIC50 is less than 6.00. For `Cc1ccc(CCC(=O)Nc2cccc3c(=O)n(CCCN4CCCC4=O)ccc23)c(C)c1` [Compound 1546], the inhibition was 0 to 25%. For the compound `Cc1cccc(C(=O)Nc2cccc3c(=O)n(CC(C)(C)C)ccc23)c1` [Compound 1246], the inhibition at 0.1 µM under setting [1] was in the range of 0 to 25%. Consider `CCOc1cccc(C(=O)Nc2cccc3c(=O)n(CCOC)ccc23)c1` [Compound 1068], for which the inhibition at 0.3 µM ('+' class symbols) lay within 0 to 25%. With `COc1ccc(C(=O)Nc2cccc3c(=O)n(Cc4ccc(OC(F)(F)F)cc4)ccc23)cc1Cl` [Compound 1555], the inhibition was in the range of 0 to 25%. Same read-out and setting: with `Cc1cccc(C(=O)Nc2cccc3c(=O)n(Cc4ccc(OC(F)(F)F)cc4)ccc23)c1` [Compound 1567] the figure was 0 to 25%.

In the case of `COc1ccc(CCC(=O)Nc2cccc3c(=O)n(CCN4CCOCC4)ccc23)cc1` [Compound 1202], the inhibition at 0.3 µM (symbols + to ++++) was 0 to 25%.

Take `COc1ccc(C(=O)Nc2cccc3c(=O)n(Cc4cccnc4)ccc23)cc1Cl` [Compound 1078]: the inhibition at 0.3 µM ('+' class symbols) was in the range of 0 to 25%. With `O=C(Nc1cccc2c(=O)n(CCN3CCOCC3)ccc12)c1cc(Cl)cc(Cl)c1` [Compound 1195], the inhibition at 0.1 µM ('*' class symbols, read-out: IL-1β % Inhib. (asterisk classes, 0.1 μM)) is 0 to 25%. `COCCn1ccc2c(NC(=O)c3ccc(C)c(Cl)c3)cccc2c1=O` [Compound 1324]: under “symbols + to ++++”, the inhibition at 0.3 µM fell in the range of 26 to 50%.

As for `COCCn1ccc2c(NC(=O)[C@@]34C[C@@H]5C[C@@H](C[C@@H]3C5)C4)cccc2c1=O` [Compound 1327], where the note is “symbols + to ++++”, the inhibition at 0.3 µM was 0 to 25%. In the case of `Cc1cccc(C(=O)Nc2cccc3c(=O)n(CCN(C)C)ccc23)c1Cl` [Compound 1183], the inhibition at 0.3 µM ('+' class symbols) lay within 0 to 25%. The same measure, in the same setting: with `Cc1c(Cl)cccc1C(=O)Nc1cccc2c(=O)n(CC3CCOCC3)ccc12` [Compound 1120] the figure was 0 to 25%; with `CCOc1cccc(C(=O)Nc2cccc3c(=O)n(CC4CCOCC4)ccc23)c1` [Compound 1030], 0 to 25%.

As for `O=C(Nc1cccc2c(=O)n(CCCN3CCCC3=O)ccc12)c1cc(Cl)cc(Cl)c1` [Compound 1511], the inhibition is 0 to 25%. Take `O=C(CCc1ccc(Cl)cc1)Nc1cccc2c(=O)n(Cc3ccc(OC(F)(F)F)cc3)ccc12` [Compound 1603]: under setting [2], the inhibition at 0.1 µM is 0 to 25%. Regarding `CCOc1ccc(CC(=O)Nc2cccc3c(=O)n(CCN4CCOCC4)ccc23)cc1` [Compound 1213], the inhibition at 0.3 µM (symbols + to ++++) was 0 to 25%. For the compound `COc1ccc(CC(=O)Nc2cccc3c(=O)n(C)ccc23)cc1` [Compound 1299], the inhibition at 0.3 µM (symbols + to ++++) was 0 to 25%.

These data come from patent US8546579B2, “Bicycloheteroaryl compounds as P2X7 modulators and uses thereof” (Evotec (US) Inc., priority 2006, dated 2013).
